Laboratory results: ChEMBL document CHEMBL1139950, “Derivatives of oxoisoaporphine alkaloids: a novel class of selective acetylcholinesterase inhibitors” (Bioorg Med Chem Lett, 2007)
pIC50: −log10 of the molar value.

Legend:
[1] = Selectivity for electric eel AChE over equine serum BuChE
Butyrylcholinesterase = Butyrylcholinesterase (Equus caballus, UniProt Q9N1N9); test: Inhibition of equine serum BuChE
Acetylcholinesterase = Acetylcholinesterase (Electrophorus electricus, UniProt O42275); test: Inhibition of electric eel AChE
Sequence of Acetylcholinesterase (O42275 whole entry): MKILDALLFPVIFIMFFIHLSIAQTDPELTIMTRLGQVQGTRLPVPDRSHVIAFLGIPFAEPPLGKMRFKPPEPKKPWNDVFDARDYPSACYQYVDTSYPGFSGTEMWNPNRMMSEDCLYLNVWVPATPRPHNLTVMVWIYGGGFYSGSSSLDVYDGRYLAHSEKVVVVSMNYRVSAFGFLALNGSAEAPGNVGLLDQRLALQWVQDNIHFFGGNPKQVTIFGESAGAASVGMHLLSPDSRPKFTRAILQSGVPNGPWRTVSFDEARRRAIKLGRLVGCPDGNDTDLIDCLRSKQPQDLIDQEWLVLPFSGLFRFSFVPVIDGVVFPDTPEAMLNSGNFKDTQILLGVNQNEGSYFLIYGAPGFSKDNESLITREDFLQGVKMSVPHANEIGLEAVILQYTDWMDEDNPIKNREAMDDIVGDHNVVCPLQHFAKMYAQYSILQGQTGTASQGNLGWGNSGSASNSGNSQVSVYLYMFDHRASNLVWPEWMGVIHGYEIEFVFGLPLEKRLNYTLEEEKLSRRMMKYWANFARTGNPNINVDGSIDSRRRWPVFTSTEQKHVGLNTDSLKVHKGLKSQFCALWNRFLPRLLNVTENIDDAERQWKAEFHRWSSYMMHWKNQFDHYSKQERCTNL

Sequence of Butyrylcholinesterase (Q9N1N9 whole entry): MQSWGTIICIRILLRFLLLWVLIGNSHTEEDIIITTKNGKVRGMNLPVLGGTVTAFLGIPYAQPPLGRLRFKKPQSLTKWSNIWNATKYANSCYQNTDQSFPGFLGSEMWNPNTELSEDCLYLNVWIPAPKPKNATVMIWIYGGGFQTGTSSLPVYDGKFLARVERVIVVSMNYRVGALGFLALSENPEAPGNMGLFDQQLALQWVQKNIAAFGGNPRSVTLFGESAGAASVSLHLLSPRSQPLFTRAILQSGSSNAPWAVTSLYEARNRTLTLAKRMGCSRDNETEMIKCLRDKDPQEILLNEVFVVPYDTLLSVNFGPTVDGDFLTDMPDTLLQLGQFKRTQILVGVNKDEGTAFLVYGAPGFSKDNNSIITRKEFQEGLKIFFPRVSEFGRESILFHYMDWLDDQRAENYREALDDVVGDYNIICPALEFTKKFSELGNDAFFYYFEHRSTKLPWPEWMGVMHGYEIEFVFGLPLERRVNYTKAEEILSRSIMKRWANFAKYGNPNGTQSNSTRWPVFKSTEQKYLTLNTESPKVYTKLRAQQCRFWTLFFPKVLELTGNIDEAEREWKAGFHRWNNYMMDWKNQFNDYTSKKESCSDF

Row | SMILES | Ratio IC50 [1] | pIC50 (Butyrylcholinesterase) | pIC50 (Acetylcholinesterase)
1 | C[N+]1(CCCC(=O)Nc2ccc3c(c2)C(=O)c2cccc4ccnc-3c24)CCCC1 | 1290 | 5.49 | 8.60
2 | O=C(CCNCCO)Nc1ccc2c(c1)C(=O)c1cccc3ccnc-2c13 | 97 | 5.27 | 7.26
3 | O=C(CN1CCCC1)Nc1ccc2c(c1)C(=O)c1cccc3ccnc-2c13 | 560 | 5.46 | 8.21
4 | C[N+](C)(C)CCC(=O)Nc1ccc2c(c1)C(=O)c1cccc3ccnc-2c13 | 590 | 5.55 | 8.32
5 | C[N+](C)(C)CC(=O)Nc1ccc2c(c1)C(=O)c1cccc3ccnc-2c13 | 88 | 5.88 | 7.83
6 | CN(C)CCC(=O)Nc1ccc2c(c1)C(=O)c1cccc3ccnc-2c13 | 58 | 5.71 | 7.47
7 | CCN(CC)CCC(=O)Nc1ccc2c(c1)C(=O)c1cccc3ccnc-2c13 | 523 | 5.22 | 7.94
8 | C[N+]1(CC(=O)Nc2ccc3c(c2)C(=O)c2cccc4ccnc-3c24)CCCC1 | 1560 | 5.77 | 8.97
9 | CN(C)CCCC(=O)Nc1ccc2c(c1)C(=O)c1cccc3ccnc-2c13 | 144 | 5.36 | 7.52
10 | CN(C)CCNCCC(=O)Nc1ccc2c(c1)C(=O)c1cccc3ccnc-2c13 | 45 | 5.27 | 6.92
11 | C[N+](C)(C)CCCC(=O)Nc1ccc2c(c1)C(=O)c1cccc3ccnc-2c13 | 490 | 5.63 | 8.32
12 | CC[N+](C)(CC)CCCC(=O)Nc1ccc2c(c1)C(=O)c1cccc3ccnc-2c13 | 1980 | 5.28 | 8.58
13 | O=C(CCN1CCCC1)Nc1ccc2c(c1)C(=O)c1cccc3ccnc-2c13 | 980 | 5.62 | 8.61
14 | Nc1ccc2c(c1)C(=O)c1cccc3ccnc-2c13 |  | 4.00 | 4.57
15 | O=C(CCCN1CCCC1)Nc1ccc2c(c1)C(=O)c1cccc3ccnc-2c13 | 300 | 5.44 | 7.92
16 | C[N+]1(CCC(=O)Nc2ccc3c(c2)C(=O)c2cccc4ccnc-3c24)CCCC1 | 1850 | 5.71 | 8.97
17 | CN(C)CC(=O)Nc1ccc2c(c1)C(=O)c1cccc3ccnc-2c13 | 45 | 5.36 | 7.02
